Data from patent US6489362B1, “Carnitine supplemented diet to prevent or alleviate ascites in broiler type poultry” (The Board of Regents for Oklahoma State University, priority 1999, dated 2002).

Key:
growing broilers = details: cited from earlier work
broilers = assay: Further examples: hematocrit of broilers fed carnitine supplemented diets; type: in vivo, broiler type chickens; details: for Hematocrit HCT: control 0: 33.40
Method: Materials and Methods: Male Cobb-500 broiler chicks (obtained from Cobb Vantress of Siloam Springs, Ark.) were used. The chicks were divided into 24 groups of […] chicks and randomly assigned to 60 open circuit respiratory chambers in three separate rooms. The chambers were housed in 3 thermostatically controlled rooms with 24 hour fluorescent light. […]
(§1) Feed and drinking water were provided for ad-libitum consumption. Chamber temperature was maintained at 30° C. the first 5 days of age and at 27.8° C. thereafter. Chambers were checked twice daily for bird mortality. Body weights of each chick were obtained on day 0, 7 and 14. Feed consumption was determined on a chamber basis at the end of 1 and 2 weeks and feed efficiency calculated. Oxygen consumption and CO2 production was recorded continuously on all chambers. Five birds at the start of the experiment were sacrificed for determination of initial composition. At the end of the experiment (Week 2) blood samples were taken from the wing vain of all birds for hematocrit determination. Heart weight and right ventricular mass of each bird were measured and the carcass saved for determination of lean and fat tissue gain using a Hologic densitometer.

[1] = system: Male Cobb-500 broiler chicks; assay: Carnitine supplemented basal diets fed to broiler chicks in respiratory chambers to 14 days of age; type: in vivo, broiler type chickens; details: carnitine 200 ppm in basal diet; for Right ventricular weight (RV) / Ascites heart ratio (AHR), ratio of right ventricular mass to heart weight: 14 days of age; for Right ventricular weight (RV): control 0 ppm 0.21 ± 0.005; for Ascites heart ratio (AHR), ratio of right ventricular mass to heart weight: control 0 ppm 11.45 ± 0.24; for Hematocrit HCT: blood at week 2, control 0 ppm 36.11 ± 0.26
Method: Materials and Methods: Male Cobb-500 broiler chicks (obtained from Cobb Vantress of Siloam Springs, Ark.) were used. The chicks were divided into 24 groups of […] chicks and randomly assigned to 60 open circuit respiratory chambers in three separate rooms. The chambers were housed in 3 thermostatically controlled rooms with 24 hour fluorescent light. Two levels of carnitine (0,200 ppm) were added to the basal diets (Table 1) and examined at two oxygen levels (17 and 20.6%).
as §1
Breathing Air Supply and Analysis: Compressed dried air (7% relative humidity (RH), 20.6% O2) was delivered to chicks in the chamber via polyethylene tubes. It was necessary to provide low RH air to the chick chamber in order to hold the chamber at RH below 75%. The concentration of O2 and CO2 in air exiting each bird's chamber was monitored each day using Ametek oxygen (accuracy±0.02%) and carbon dioxide (accuracy±.03%) analyzers, respectively.
Statistical Analysis: Data were analyzed using the General Linear Model procedure of SAS (SAS, 1985). When a significant F statistic was noted by ANOVA, treatment means were compared using least square analysis variance.

C[N+](C)(C)CC(O)CC(=O)[O-] (stereo not drawn) [Carnitine, 3-hydroxy-4-N-trimethylaminobutyric acid]
Effect on feed intake, body and abdominal fat weight, carcass or liver lipid levels (growing broilers; carnitine in poultry diet, growing broilers (Cartwright 1986)): no beneficial effect | Ethanol metabolism in broilers (growing broilers; dietary carnitine (Smith et al. 1992)): retard ethanol metabolism | Hatchability of eggs (growing broilers; dietary carnitine (U.S. Pat. No. 5,362,753)): increase the hatchability of eggs | Hematocrit HCT (broilers; carnitine level 12.5 (ppm) in diet): 32.11% | Hematocrit HCT (broilers; carnitine level 50 (ppm) in diet): 31.99% | Hematocrit HCT (broilers; carnitine level 100 (ppm) in diet): 30.60% | Hematocrit values, change versus unsupplemented diet (broilers; diets at 12.5, 50 and 100 ppm carnitine): beneficial and significant lowering | Right ventricular weight (RV) [1]: 0.20 ± 0.006 g | Right ventricular weight (RV) ([1]; listed as carnitine): significantly decreased | Ascites heart ratio (AHR), ratio of right ventricular mass to heart weight [1]: 10.57 ± 0.26% | Ascites heart ratio (AHR), ratio of right ventricular mass to heart weight ([1]; listed as carnitine): significantly decreased | Hematocrit HCT [1]: 35.41 ± 0.24% | Hematocrit HCT ([1]; listed as carnitine): significantly decreased | Body weight gain (Gain) ([1]; broilers to 14 days of age): 265 ± 3.1 g/b | Gain:feed ratio ([1]; broilers to 14 days of age): 0.76 ± 0.0
